Experimental findings from patent publication US9051311B2, “Sulfamide sodium channel inhibitors” (AMGEN INC., priority 2012, dated 2015) are described below.

The target of experiment [1] is T1, Nav 1.7 (Homo sapiens (Human), UniProt Q15858). Put plainly: Nav 1.7 IonWorks Quattro (IWQ) in vitro assay, population patch-clamp.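 Further: cells held at −110 mV for 3 s, then 26 pulses of 150 ms at 5 Hz, leak-corrected peak current, percent block measured before and after compound, 3–8 min exposure.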 In kind it is cell-based. The note with it: 293 cells stably transfected with Nav 1.7; block at 26th pulse to −20 mV.
Protocol: (§1) Nav 1.7 and Nav 1.5 Ion Works Quattro (IWQ) In Vitro Assays
(§2) 293 cells stably transfected with either Nav 1.7 or with Nav 1.5 were recorded in population patch-clamp mode with the IonWorks® Quattro automated electrophysiology system in accordance with the manufacturer's specifications (Molecular Devices, LLC, Sunnyvale, Calif.). Sodium channel currents were measured in response to a train of depolarizations that induced successively greater inactivation.
(§3) Cells were held at −110 mV for three seconds (Nav 1.7) or half a second (Nav 1.5) from a holding voltage of −15 mV, then put through a series of 26 pulses of 150 msec duration to −20 mV at a frequency of 5 Hz. Cells were then left unclamped for a period of 3 to 8 minutes while a single concentration of test compound was added. Cells were then reclamped and put through the same voltage protocol. Current at the end of the 26th pulse to −20 mV was subtracted from the peak current evoked by the 26th pulse to −20 mV to correct for leak current. Percent block was calculated for each concentration in duplicate, and IC50 curves were fitted to percent block as a function of concentration.
The target in experiment [2] is T1, Nav 1.7. The experiment can be described thus: Nav 1.7 in vitro PatchExpress (PX) assay, whole cell voltage clamp. It is filed as cell-based. The note with it: 293 cells stably transfected with human Nav1.7; partially inactivated state (20 to 50% inactivation). The method, then:
Nav 1.7 In Vitro PatchExpress (PX) Assay
293 cells stably transfected with human Nav1.7 were recorded in whole cell voltage clamp mode with the PatchXpress automated electrophysiology system (Molecular Devices, LLC, Sunnyvale, Calif.). Compound effects were measured on a partially inactivated state of the sodium channel. Cells were clamped to a holding potential yielding 20 to 50% inactivation. To elicit sodium current, channels were activated by pulsing to −10 mV for 20 msec. This voltage protocol was repeated at a rate of 0.1 Hz throughout the experiment. A single concentration of test compound was applied to cells for a duration of 3 minutes. Peak sodium current was measured at the end of the compound addition period to determine percent inhibition.

The target in another experiment is Nav 1.5 (Homo sapiens (Human), UniProt Q14524). Put plainly: cell-based.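 Further: HEK293 cells stably expressing Nav1.5, sodium current at the 26th of 26 pulses to −20 mV (150 ms, 5 Hz) after compound versus before, leak-corrected, 3–8 min exposure.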

Structures can show the parent of a compound that is named as a salt.

Sequence of Nav 1.5 (Q14524 whole entry): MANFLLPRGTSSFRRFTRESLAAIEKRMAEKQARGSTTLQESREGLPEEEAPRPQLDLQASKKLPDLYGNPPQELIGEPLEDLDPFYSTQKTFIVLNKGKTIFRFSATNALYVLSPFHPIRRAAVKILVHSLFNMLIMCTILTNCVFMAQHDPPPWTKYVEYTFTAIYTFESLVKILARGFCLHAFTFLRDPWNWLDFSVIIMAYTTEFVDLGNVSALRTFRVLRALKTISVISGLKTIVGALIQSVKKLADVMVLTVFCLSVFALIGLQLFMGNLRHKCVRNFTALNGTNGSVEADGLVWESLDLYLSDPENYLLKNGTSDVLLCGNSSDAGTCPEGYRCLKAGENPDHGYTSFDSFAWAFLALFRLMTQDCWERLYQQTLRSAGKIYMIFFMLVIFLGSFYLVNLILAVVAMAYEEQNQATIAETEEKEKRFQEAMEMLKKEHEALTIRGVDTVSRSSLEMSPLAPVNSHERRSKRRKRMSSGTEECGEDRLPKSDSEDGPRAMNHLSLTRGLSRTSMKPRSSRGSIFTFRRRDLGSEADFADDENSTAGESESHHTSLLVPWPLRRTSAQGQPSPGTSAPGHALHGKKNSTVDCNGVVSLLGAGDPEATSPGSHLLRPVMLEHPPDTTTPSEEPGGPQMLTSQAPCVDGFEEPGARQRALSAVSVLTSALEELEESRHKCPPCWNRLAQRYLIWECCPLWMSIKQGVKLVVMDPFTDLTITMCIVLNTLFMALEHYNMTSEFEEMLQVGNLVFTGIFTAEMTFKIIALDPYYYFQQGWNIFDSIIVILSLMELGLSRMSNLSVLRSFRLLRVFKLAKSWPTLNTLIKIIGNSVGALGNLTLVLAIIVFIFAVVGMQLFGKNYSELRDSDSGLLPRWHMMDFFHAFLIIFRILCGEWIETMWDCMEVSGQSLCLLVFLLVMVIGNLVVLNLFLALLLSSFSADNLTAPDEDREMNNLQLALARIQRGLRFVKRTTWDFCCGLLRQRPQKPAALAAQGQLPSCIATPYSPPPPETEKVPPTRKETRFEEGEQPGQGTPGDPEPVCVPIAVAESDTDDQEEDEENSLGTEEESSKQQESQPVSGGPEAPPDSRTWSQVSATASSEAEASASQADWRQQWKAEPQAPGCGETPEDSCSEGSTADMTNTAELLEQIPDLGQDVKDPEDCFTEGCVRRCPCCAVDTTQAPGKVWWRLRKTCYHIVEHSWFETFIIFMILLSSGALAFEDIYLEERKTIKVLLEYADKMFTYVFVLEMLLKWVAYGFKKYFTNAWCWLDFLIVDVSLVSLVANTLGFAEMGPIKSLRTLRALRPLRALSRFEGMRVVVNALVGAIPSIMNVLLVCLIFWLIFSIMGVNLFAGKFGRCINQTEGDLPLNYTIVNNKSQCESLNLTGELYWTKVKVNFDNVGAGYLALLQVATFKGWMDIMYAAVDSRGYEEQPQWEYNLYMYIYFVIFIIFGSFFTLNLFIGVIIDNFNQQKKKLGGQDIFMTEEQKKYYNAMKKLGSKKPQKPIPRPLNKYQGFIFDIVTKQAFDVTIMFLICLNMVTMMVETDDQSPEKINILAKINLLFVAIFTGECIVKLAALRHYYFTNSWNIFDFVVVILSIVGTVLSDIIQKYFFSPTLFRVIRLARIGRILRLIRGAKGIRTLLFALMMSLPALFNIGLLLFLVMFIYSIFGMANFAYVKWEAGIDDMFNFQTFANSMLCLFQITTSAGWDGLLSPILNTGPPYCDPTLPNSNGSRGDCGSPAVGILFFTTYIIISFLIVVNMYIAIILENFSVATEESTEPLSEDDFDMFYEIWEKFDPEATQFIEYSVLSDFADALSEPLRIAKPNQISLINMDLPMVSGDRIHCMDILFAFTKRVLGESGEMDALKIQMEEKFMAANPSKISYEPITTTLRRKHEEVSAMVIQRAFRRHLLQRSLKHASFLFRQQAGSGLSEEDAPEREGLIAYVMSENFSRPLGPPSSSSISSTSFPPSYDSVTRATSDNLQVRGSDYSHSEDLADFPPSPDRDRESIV
T1 sequence (Q15858 whole entry): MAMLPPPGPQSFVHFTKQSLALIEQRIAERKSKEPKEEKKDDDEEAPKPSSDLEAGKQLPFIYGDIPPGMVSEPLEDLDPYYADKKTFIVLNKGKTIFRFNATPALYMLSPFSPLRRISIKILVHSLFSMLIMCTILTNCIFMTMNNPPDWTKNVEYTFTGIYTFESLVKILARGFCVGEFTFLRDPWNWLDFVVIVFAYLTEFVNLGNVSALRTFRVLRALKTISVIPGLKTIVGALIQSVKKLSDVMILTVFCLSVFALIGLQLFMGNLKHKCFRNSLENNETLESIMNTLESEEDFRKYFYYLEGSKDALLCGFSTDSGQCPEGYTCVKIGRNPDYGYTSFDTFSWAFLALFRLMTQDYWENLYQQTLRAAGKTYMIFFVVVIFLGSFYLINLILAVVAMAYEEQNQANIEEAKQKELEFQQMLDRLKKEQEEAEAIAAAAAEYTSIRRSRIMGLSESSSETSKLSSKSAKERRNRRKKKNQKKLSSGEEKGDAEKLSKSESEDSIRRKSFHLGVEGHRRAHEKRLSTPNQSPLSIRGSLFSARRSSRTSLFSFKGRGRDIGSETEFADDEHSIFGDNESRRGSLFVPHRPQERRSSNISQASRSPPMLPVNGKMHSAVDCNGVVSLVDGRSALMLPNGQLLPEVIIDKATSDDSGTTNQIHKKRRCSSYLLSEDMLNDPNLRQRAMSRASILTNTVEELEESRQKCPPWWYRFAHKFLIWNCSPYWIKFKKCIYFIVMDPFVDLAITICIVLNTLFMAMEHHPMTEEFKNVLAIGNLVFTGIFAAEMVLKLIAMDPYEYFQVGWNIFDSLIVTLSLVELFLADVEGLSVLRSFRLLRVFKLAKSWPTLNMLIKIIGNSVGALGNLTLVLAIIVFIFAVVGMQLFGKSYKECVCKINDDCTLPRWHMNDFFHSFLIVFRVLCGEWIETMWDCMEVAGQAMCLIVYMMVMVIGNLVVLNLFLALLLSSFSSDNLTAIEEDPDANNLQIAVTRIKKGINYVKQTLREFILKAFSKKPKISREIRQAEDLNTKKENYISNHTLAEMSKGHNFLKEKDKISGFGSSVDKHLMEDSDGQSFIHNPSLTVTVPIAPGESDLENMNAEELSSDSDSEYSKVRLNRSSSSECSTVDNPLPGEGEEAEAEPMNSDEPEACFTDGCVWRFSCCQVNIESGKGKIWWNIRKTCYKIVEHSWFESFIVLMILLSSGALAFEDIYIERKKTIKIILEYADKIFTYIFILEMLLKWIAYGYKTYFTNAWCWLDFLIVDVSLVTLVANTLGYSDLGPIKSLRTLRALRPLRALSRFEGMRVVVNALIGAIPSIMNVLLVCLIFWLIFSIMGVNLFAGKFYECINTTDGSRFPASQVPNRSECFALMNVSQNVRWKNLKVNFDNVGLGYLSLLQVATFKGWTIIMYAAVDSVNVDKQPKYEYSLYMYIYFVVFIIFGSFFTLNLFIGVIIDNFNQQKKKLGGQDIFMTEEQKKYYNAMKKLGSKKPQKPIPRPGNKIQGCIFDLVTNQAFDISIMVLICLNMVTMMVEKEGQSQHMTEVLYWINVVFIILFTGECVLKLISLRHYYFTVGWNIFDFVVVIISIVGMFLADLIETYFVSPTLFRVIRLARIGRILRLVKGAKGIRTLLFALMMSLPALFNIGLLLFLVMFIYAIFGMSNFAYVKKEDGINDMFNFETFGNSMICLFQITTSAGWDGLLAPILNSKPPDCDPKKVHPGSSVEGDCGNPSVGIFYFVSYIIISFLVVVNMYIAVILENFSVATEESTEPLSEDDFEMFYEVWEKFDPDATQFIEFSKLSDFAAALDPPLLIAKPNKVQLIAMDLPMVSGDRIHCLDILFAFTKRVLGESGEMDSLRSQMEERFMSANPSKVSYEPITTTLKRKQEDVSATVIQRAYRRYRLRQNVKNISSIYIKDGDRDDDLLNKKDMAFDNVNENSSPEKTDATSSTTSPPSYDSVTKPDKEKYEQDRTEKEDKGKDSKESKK
Protocol for Nav 1.5: as §1, §2, §3

Regarding `O=S(=O)(Nc1ncns1)N1CCc2c(cccc2-c2ccc(C(F)(F)F)cc2-c2cncnc2)C1` [Example 23, 5-(2-(Pyrimidin-5-yl)-4-(trifluoromethyl)phenyl)-N-(1,2,4-thiadiazol-5-yl)-3,4-dihydroisoquinoline-2(1H)-sulfonamide], the half-inhibitory concentration (IC50) at Nav 1.7 [1] is 0.186 µM; at Nav 1.7 [2] it was 0.8 µM; on Nav 1.5, over 10 µM.

With `O=S(=O)(Nc1ncns1)N1CCc2c(cccc2-c2ccc(C(F)(F)F)cc2Cl)C1` [Example 9, 5-(2-Chloro-4-(trifluoromethyl)phenyl)-N-(1,2,4-thiadiazol-5-yl)-3,4-dihydroisoquinoline-2(1H)-sulfonamide], the results for the 50% inhibitory concentration (IC50) at Nav 1.7 [1], against Nav 1.7 [2] and on Nav 1.5 were 0.477 µM, 0.61 µM and over 10 µM, respectively.

`O=S(=O)(Nc1nccs1)N1CCc2c(cccc2-c2ccc(C(F)(F)F)cc2C2=CCNCC2)C1` [Example 36, 5-(2-(1,2,3,6-Tetrahydropyridin-4-yl)-4-(trifluoromethyl)phenyl)-N-(thiazol-2-yl)-3,4-dihydroisoquinoline-2(1H)-sulfonamide hydrochloride]: the concentration for half-maximal inhibition (IC50) was 1.89 µM against Nav 1.7 [1], 4.68 µM against Nav 1.7 [2] and over 10 µM against Nav 1.5.

Turning to `COc1cc(C(F)(F)F)ccc1-c1ncnc2c1CCN(S(=O)(=O)Nc1nccs1)C2` [Example 59, 4-(2-methoxy-4-(trifluoromethyl)phenyl)-N-(thiazol-2-yl)-5,6-dihydropyrido[3,4-d]pyrimidine-7(8H)-sulfonamide], the IC50 at Nav 1.7 [1] was 0.087 µM; on Nav 1.7 [2], 1.05 µM; on Nav 1.5, over 10 µM.

With `O=S(=O)(Nc1ncc(F)s1)N1CCc2c(cccc2-c2ccc(C(F)(F)F)cc2C2=CCNCC2)C1` [Example 33, N-(5-Fluorothiazol-2-yl)-5-(2-(1,2,3,6-tetrahydropyridin-4-yl)-4-(trifluoromethyl)phenyl)-3,4-dihydroisoquinoline-2(1H)-sulfonamide hydrochloride], the values for the IC50 on Nav 1.7 [1], on Nav 1.7 [2] and at Nav 1.5 were 0.351 µM, 0.19 µM and over 10 µM, respectively.

Take `O=S(=O)(Nc1ncns1)N1CCc2c(cccc2-c2cccc3c2CCNC3)C1` [Example 13, N-(1,2,4-Thiadiazol-5-yl)-1′,2′,3,3′,4,4′-hexahydro-[5,5′-biisoquinoline]-2(1H)-sulfonamide hydrochloride]: the values for the half-maximal inhibitory concentration (IC50) against Nav 1.7 [1], on Nav 1.7 [2] and on Nav 1.5 were 3.87 µM, over 30 µM and over 10 µM, respectively.

For `COc1ccc(F)cc1-c1cccc2c1CCN(S(=O)(=O)Nc1ncns1)C2` [Example 29, 5-(5-Fluoro-2-methoxyphenyl)-N-(1,2,4-thiadiazol-5-yl)-3,4-dihydroisoquinoline-2(1H)-sulfonamide], the IC50 was 0.0628 µM on Nav 1.7 [1], 0.37 µM at Nav 1.7 [2] and over 10 µM against Nav 1.5.

Turning to `O=S(=O)(Nc1ncns1)N1CCc2c(cccc2-c2ccc(C(F)(F)F)cc2F)C1` [Example 8, 5-(2-Fluoro-4-(trifluoromethyl)phenyl)-N-(1,2,4-thiadiazol-5-yl)-3,4-dihydroisoquinoline-2(1H)-sulfonamide], the values for the IC50 on Nav 1.7 [1], on Nav 1.7 [2] and on Nav 1.5 were 1.84 µM, 3.13 µM and over 10 µM, respectively.

With `Cn1nccc1-c1cc(C(F)(F)F)ccc1-c1cccc2c1CCN(S(=O)(=O)Nc1nccs1)C2` [Example 3, 5-(2-(1-methyl-1H-pyrazol-5-yl)-4-(trifluoromethyl)phenyl)-N-(thiazol-2-yl)-3,4-dihydroisoquinoline-2(1H)-sulfonamide], the IC50 was 0.414 µM on Nav 1.7 [1], 2.01 µM against Nav 1.7 [2] and over 10 µM at Nav 1.5.

Consider `O=S(=O)(Nc1ncns1)N1CCc2c(cccc2-c2ccc(Cl)cc2Cl)C1` [Example 12, 5-(2,4-Dichlorophenyl)-N-(1,2,4-thiadiazol-5-yl)-3,4-dihydroisoquinoline-2(1H)-sulfonamide], for which the IC50 against Nav 1.7 [1] was 2.41 µM; against Nav 1.7 [2], 1.33 µM; at Nav 1.5 it was over 10 µM.

Regarding `O=S(=O)(Nc1ncns1)N1CCc2c(cccc2-c2ccc(C(F)(F)F)cc2-c2cn[nH]c2)C1` [Example 17, 5-(2-(1H-Pyrazol-4-yl)-4-(trifluoromethyl)phenyl)-N-(1,2,4-thiadiazol-5-yl)-3,4-dihydroisoquinoline-2(1H)-sulfonamide], the 50% inhibitory concentration (IC50) is 0.157 µM at Nav 1.7 [1], 0.35 µM against Nav 1.7 [2] and over 10 µM at Nav 1.5.

On to `O=S(=O)(Nc1ncns1)N1CCc2c(cccc2-c2ccc(C(F)(F)F)cc2Br)C1` [Example 4, 5-(2-Bromo-4-(trifluoromethyl)phenyl)-N-(1,2,4-thiadiazol-5-yl)-3,4-dihydroisoquinoline-2(1H)-sulfonamide], for which the results for the IC50 against Nav 1.7 [1], against Nav 1.7 [2] and on Nav 1.5 were 0.527 µM, 0.56 µM and over 10 µM, respectively.

For `O=S(=O)(Nc1ncns1)N1CCc2c(cccc2-c2ccc(C(F)(F)F)cc2C2=CCNC2)C1` [Example 34, 5-(2-(2,5-Dihydro-1H-pyrrol-3-yl)-4-(trifluoromethyl)phenyl)-N-(1,2,4-thiadiazol-5-yl)-3,4-dihydroisoquinoline-2(1H)-sulfonamide hydrochloride], the half-inhibitory concentration (IC50) against Nav 1.7 [1] is 0.0645 µM; against Nav 1.7 [2], 0.05 µM; on Nav 1.5 it was over 10 µM.

Consider `Nc1cc(-c2cc(C(F)(F)F)ccc2-c2cccc3c2CCN(S(=O)(=O)Nc2ncns2)C3)ccn1` [Example 18, 5-(2-(2-Aminopyridin-4-yl)-4-(trifluoromethyl)phenyl)-N-(1,2,4-thiadiazol-5-yl)-3,4-dihydroisoquinoline-2(1H)-sulfonamide], for which the IC50 against Nav 1.7 [1] is 0.0453 µM; on Nav 1.7 [2] it was 0.07 µM; against Nav 1.5 it was over 10 µM.

Turning to `CN1CCN(c2cc(C(F)(F)F)ccc2-c2cccc3c2CCN(S(=O)(=O)Nc2ncc(F)s2)C3)CC1` [Example 41, N-(5-Fluorothiazol-2-yl)-5-(2-(4-methylpiperazin-1-yl)-4-(trifluoromethyl)phenyl)-3,4-dihydroisoquinoline-2(1H)-sulfonamide], the IC50 against Nav 1.7 [1] is 0.395 µM; against Nav 1.7 [2], 7.34 µM; against Nav 1.5, over 10 µM.

Take `O=S(=O)(Nc1ncns1)N1CCc2c(cccc2-c2ccc(C(F)(F)F)cc2N2CCOCC2)C1` [Example 31, 5-(2-Morpholino-4-(trifluoromethyl)phenyl)-N-(1,2,4-thiadiazol-5-yl)-3,4-dihydroisoquinoline-2(1H)-sulfonamide]: the results for the IC50 at Nav 1.7 [1], against Nav 1.7 [2] and against Nav 1.5 were 0.758 µM, 1.74 µM and over 10 µM, respectively.

`O=S(=O)(Nc1ccncn1)N1CCc2c(cccc2-c2ccc(C(F)(F)F)cc2Br)C1` [Example 56, 5-(2-Bromo-4-(trifluoromethyl)phenyl)-N-(pyrimidin-4-yl)-3,4-dihydroisoquinoline-2(1H)-sulfonamide]: the IC50 on Nav 1.7 [1] is 38.9 µM; against Nav 1.7 [2] it was over 10 µM; against Nav 1.5, over 10 µM.

For the compound `O=S(=O)(Nc1ncc(F)s1)N1CCc2c(cccc2-c2ccc(C(F)(F)F)cc2-n2ccnc2)C1` [Example 38, 5-(2-(1H-Imidazol-1-yl)-4-(trifluoromethyl)phenyl)-N-(5-fluorothiazol-2-yl)-3,4-dihydroisoquinoline-2(1H)-sulfonamide], the figures for the IC50 against Nav 1.7 [1], against Nav 1.7 [2] and against Nav 1.5 were 0.0917 µM, 0.69 µM and over 10 µM, respectively.

In the case of `O=S(=O)(Nc1ncns1)N1CCc2c(cccc2-c2ccc(C(F)(F)F)cc2-n2ccnc2)C1` [Example 32, 5-(2-(1H-Imidazol-1-yl)-4-(trifluoromethyl)phenyl)-N-(1,2,4-thiadiazol-5-yl)-3,4-dihydroisoquinoline-2(1H)-sulfonamide], the half-inhibitory concentration (IC50) against Nav 1.7 [1] stood at 0.0258 µM; against Nav 1.7 [2], 0.22 µM; against Nav 1.5 it was 6.68 µM.

Consider `COc1cc(C2CC2)ccc1-c1cccc2c1CCN(S(=O)(=O)Nc1ncns1)C2` [Example 45, 5-(4-Cyclopropyl-2-methoxyphenyl)-N-(1,2,4-thiadiazol-5-yl)-3,4-dihydroisoquinoline-2(1H)-sulfonamide], for which the values for the 50% inhibitory concentration (IC50) on Nav 1.7 [1], against Nav 1.7 [2] and against Nav 1.5 were 0.0675 µM, 0.87 µM and over 10 µM, respectively.

`COc1cc(C(F)(F)F)ccc1-c1ncnc2c1CCN(S(=O)(=O)Nc1ncns1)C2` [Example 61, 4-(2-methoxy-4-(trifluoromethyl)phenyl)-N-(1,2,4-thiadiazol-5-yl)-5,6-dihydropyrido[3,4-d]pyrimidine-7(8H)-sulfonamide]: the IC50 at Nav 1.7 [1] is 0.141 µM; against Nav 1.7 [2], 1.21 µM; against Nav 1.5 it was over 10 µM.

On to `O=S(=O)(Nc1ncns1)N1CCc2c(cccc2-c2ccc(C(F)(F)F)cc2-c2cccnc2)C1` [Example 22, 5-(2-(Pyridin-3-yl)-4-(trifluoromethyl)phenyl)-N-(1,2,4-thiadiazol-5-yl)-3,4-dihydroisoquinoline-2(1H)-sulfonamide], for which the 50% inhibitory concentration (IC50) at Nav 1.7 [1] is 0.0805 µM; on Nav 1.7 [2], 0.47 µM; at Nav 1.5, over 10 µM.

`O=S(=O)(Nc1ccncn1)N1CCc2c(cccc2-c2ccc(C(F)(F)F)cc2C2=CCNCC2)C1` [Example 37, N-(Pyrimidin-4-yl)-5-(2-(1,2,3,6-tetrahydropyridin-4-yl)-4-(trifluoromethyl)phenyl)-3,4-dihydroisoquino line-2(1H)-sulfonamide]: the values for the IC50 against Nav 1.7 [1], against Nav 1.7 [2] and against Nav 1.5 were 3.94 µM, 19 µM and over 10 µM, respectively.

Turning to `O=S(=O)(Nc1ncns1)N1CCc2c(cccc2-c2ccc(C(F)(F)F)cc2)C1` [Example 7, N-(1,2,4-Thiadiazol-5-yl)-5-(4-(trifluoromethyl)phenyl)-3,4-dihydroisoquinoline-2(1H)-sulfonamide], the half-maximal inhibitory concentration (IC50) was 1.64 µM on Nav 1.7 [1], 5.8 µM against Nav 1.7 [2] and over 10 µM on Nav 1.5.
